According to paper PMC4085797, “Synthetic Inositol Phosphate Analogs Reveal that PPIP5K2 Has a Surface-Mounted Substrate Capture Site that Is a Target for Drug Discovery” (Chemistry & Biology, 2014):
Changes are numbered by the printed parent chain. Like-named read-outs stand apart in the source and are kept apart here.

Tests used:
Format in all cases: biochemical
PPIP5K2^KD K54A mutant = target: T1, PPIP5K2^KD K54A mutant (Homo sapiens, UniProt O43314, K54A); assay: ATPase activity of K54A mutant; conditions: Figures 7B and 7C
T1 construct: The kinase domain of human PPIP5K2 (PPIP5K2^KD; residues 1–366); made in house
T1 sequence (O43314 1-366 K54A): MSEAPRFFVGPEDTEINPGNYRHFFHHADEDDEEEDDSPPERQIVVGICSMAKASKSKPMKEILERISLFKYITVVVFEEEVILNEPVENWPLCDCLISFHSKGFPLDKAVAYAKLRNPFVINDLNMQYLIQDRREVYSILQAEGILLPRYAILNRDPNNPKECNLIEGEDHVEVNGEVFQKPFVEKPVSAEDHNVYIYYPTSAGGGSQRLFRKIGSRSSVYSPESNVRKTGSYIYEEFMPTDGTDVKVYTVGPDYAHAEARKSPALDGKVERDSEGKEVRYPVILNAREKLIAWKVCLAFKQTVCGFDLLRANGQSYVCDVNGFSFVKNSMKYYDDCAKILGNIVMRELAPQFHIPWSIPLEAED
Procedure: (§1) The initial InsP6 concentration was either 500 nM, 70 nM, or 40 nM. Various concentrations of 2,5-di-O-Bn-InsP4 were present as indicated. Radioactivity was assessed using an in-line Flo1 detector. The ADP-driven dephosphorylation of 100 nM 1,5-[PP]2-InsP4 by PPIP5K2^KD was usually determined by a luminescence-based assay of ATP accumulation ([Riley et al., 2012; Weaver et al., 2013]). The IC50 values were determined using GraphPad Prism v6.02 (n ≥ 3). In some experiments, 1,5-[PP]2-[^3H]InsP4 dephosphorylation by PPIP5K2^KD was assayed in 50 μl buffer containing 50 mM KCl, 20 mM HEPES pH 7.0, 7 mM MgSO4, 5 mM ADP, 1 mM EDTA. Reactions were then quenched, neutralized, and analyzed with HPLC using a Partisphere SAX column ([Weaver et al., 2013]); 1 ml fractions were collected for liquid scintillation spectrometry. The ATPase activity of PPIP5K2^KD (10–270 μg/ml) was assayed from Pi release following incubation at 37°C for 120–180 min in 20 μl reaction mixtures containing 20 mM Tris/HCl, pH 7.5, 10 mM ATP, 100 mM KCl, 0.1 mM EDTA, and 13 mM MgCl2.
Protein Expression, Purification, Crystallization and Structure Determination […]
(§2) The structure was further manually rebuilt with COOT and refined with PHENIX and
(§3) REFMAC from the CCP4 package. Ligand topology and parameter files were prepared using
the PRODRG server. The molecular graphics representations were prepared with the program […]

[1] = target: T2, PPIP5K2^KD (kinase domain of human PPIP5K2) (Homo sapiens, UniProt O43314); assay: ATPase activity of PPIP5K2KD (Pi release); conditions: for stimulation of ATPase activity (in words): 25 μM, wild-type enzyme, Figure 2
T2 construct: The kinase domain of human PPIP5K2 (PPIP5K2^KD; residues 1–366); made in house
T2 sequence (O43314 1-366): T1 sequence (O43314 1-366 K54A) with A54K
Procedure: as §1

PPIP5K2^KD E192Q mutant = target: T3, PPIP5K2^KD E192Q mutant (Homo sapiens, UniProt O43314, E192Q); assay: ATPase activity of E192Q mutant; conditions: 25 μM, Figure 7E
T3 construct: The kinase domain of human PPIP5K2 (PPIP5K2^KD; residues 1–366); made in house
T3 sequence (O43314 1-366 E192Q): T1 sequence (O43314 1-366 K54A) with A54K, E192Q
Procedure: as §1
Protein Expression, Purification, Crystallization and Structure Determination
Full-length human IP6K2, the kinase domain of human PPIP5K2 (PPIP5K2KD; residues 1-
366), and the N-terminally truncated domain used for the crystallography studies (residues
41-366) were all sub-cloned, expressed and purified as before (Wang et al., 2012; Weaver et
al., 2013). […]
as §2, §3
the PRODRG server. The molecular graphics representations were prepared with the program
PyMol (Schrödinger, LLC). The 2D ligand-protein interaction diagrams were generated by
LigPlot+. Atomic coordinates and structure factors have been deposited with the Protein Data
Bank with accession codes: 4NZM, 4NZN, 4NZO.
Mutants were generated using a site-directed mutagenesis kit (Stratagene). Pairs of complementary
primers were designed as shown below, with mutagenic primers underlined (only 5’ primers are […]

PPIP5K2^KD R213A mutant = target: T4, PPIP5K2^KD R213A mutant (Homo sapiens, UniProt O43314, R213A); assay: ATPase activity of R213A mutant; conditions: Figures 7B and 7C
T4 construct: The kinase domain of human PPIP5K2 (PPIP5K2^KD; residues 1–366); made in house
T4 sequence (O43314 1-366 R213A): T1 sequence (O43314 1-366 K54A) with A54K, R213A
Procedure: as §1

EC50 ([1]; Figure 4A, read-out: EC50, stimulation of ATPase activity) [nM]	stimulation of ATP hydrolysis ([1]; 25 μM analog) [fold]	EC50 ([1]; dose-response, key of Figure 4A, n = 3, read-out: EC50, stimulation of ATPase activities) [nM]	SMILES	stimulation of ATPase activity vs wild-type (in words) (PPIP5K2^KD K54A mutant)	stimulation of ATPase activity (in words) [1]	rate of ligand-stimulated ATPase activity vs wild-type (in words) (PPIP5K2^KD E192Q mutant)	stimulation of ATPase activity vs wild-type (in words) (PPIP5K2^KD R213A mutant)
340	–	–	O=P(O)(O)O[C@@H]1[C@@H](OCc2ccccc2)[C@H](OP(=O)(O)O)[C@@H](OP(=O)(O)O)[C@@H](OCc2ccccc2)[C@H]1OP(=O)(O)O [compound 10, 2,5-di-O-Bn-InsP4]	substantially impaired degree of stimulation	highest degree of ATPase activity among all of the analogs	neither of these particular mutations altered the rate	substantially impaired degree of stimulation
–	9	550	O=C(CP(=O)(O)O)O[C@@H]1[C@@H](OP(=O)(O)O)[C@H](OP(=O)(O)O)[C@H](OCc2ccccc2)[C@H](OP(=O)(O)O)[C@H]1OP(=O)(O)O [compound 2, 2-O-benzyl-5-O-α-phosphonoacetyl-myo-inositol 1,3,4,6-tetrakisphosphate]	substantially impaired degree of stimulation	strongly activated	neither of these particular mutations altered the rate	substantially impaired degree of stimulation
